The text below walks through data of patent US6482802B1 (Endowment for Research in Human Biology, Inc., priority 1998, dated 2002).

Data set [1] has as its system HUVE cells. The data set is described as follows: bFGF-induced proliferation of HUVE cells, aminoglycoside antibiotics. The class given is cell-based, human. As to conditions: aminoglycoside 100 μM; for % Inhibition of bFGF-induced cell proliferation / bFGF (10 ng/ml) Cell Numbers: bFGF 10 ng/ml; for bFGF (10 ng/ml) Cell Numbers / Control (cell number without bFGF): 48 hr; for bFGF (10 ng/ml) Cell Numbers: control 99000 ± 1000; for Control (cell number without bFGF): no bFGF, control 61300 ± 500. As for the experimental part: (§1) HUVE cells were seeded at 4×10^3 cells/cm^2 in attachment factor (Cell Systems Corp.)-coated 35 mm dishes in HE-SFM, and incubated with 1 μg/ml angiogenin in the presence or absence of inhibitors at 37° C. for 48 hr. Cell were detached by trypsinization and cell numbers were determined with a Coulter counter.
The ability of the other members of the aminoglycoside antibiotic family to inhibit bFGF-induced proliferation of HUVE cells was examined in a similar manner as for angiogenin as described in Section 6.1.1.5, above. HUVE cells, passage 9, were seeded on attachment-factor coated dishes at 50,000 cells per 35 mm dish in HE-SFM. Aminoglycoside antibiotics were added and the cells were incubated with or without […] at 37° C. for 48 hr.

Data set [2] relates to HUVE cells. The data set can be described thus: Cytotoxicity against HUVE cells. In kind it is cell-based, human. As to conditions: concentration not given. As for the experimental part:
Human umbilical vein endothelial (HUVE) cells were purchased from Cell Systems Corp. (Kirkland, Wash.). […] Cells between passages 5 and 12 inclusive were used for all experiments. Cell numbers were determined with a Coulter counter, and cell viability was measured by trypan blue dye exclusion assay.

In data set [3] the test system is HUVE cells. The data set can be described thus: Angiogenin-induced proliferation of HUVE cells. The class given is cell-based, human. The conditions noted are these: for inhibition of angiogenin-induced cell proliferation: aminoglycoside 100 μM (Table 3); for Cell number / percent of cell number in the presence of 1 μg/ml angiogenin relative to the corresponding control: aminoglycoside 100 μM; for percent of cell number in the presence of 1 μg/ml angiogenin relative to the corresponding control: none: 120. The method, then:
as §1

For data set [4], the system named is chorioallantoic membrane (CAM) of chick embryos. The data set is described as follows: CAM assay, angiogenin-induced angiogenesis. As to conditions: for inhibition of angiogenin-induced angiogenesis in CAM assay: in vivo. In kind it is in vivo. As for the experimental part:
(§2) Angiogenesis was measured on the CAM by the method of Knighton et al. (Knighton et al., 1977, Br. J. Cancer 35:347-356) essentially as described (Fett et al., 1985, Biochemistry 24:5480-5486). Fertilized chicken eggs were kept at 18° C. for 2 days and then incubated in a humidified environment at 37° C. for 3 days. Albumin was aspirated from the embryos and after 24 hours, a “window” was cut through the shell and covered with clear tape. […] After 48-68 hours at 37° C., the growth of blood vessels was observed microscopically and recorded as either positive or negative. A positive response (i.e., an angiogenic response) has a typical “spokewheel” appearance.

In data set [5] the test system is nuclear translocation of 125I-angiogenin in HUVE cells. The data set is described as follows: Nuclear translocation of 125I-angiogenin in HUVE cells. As to conditions: for effect on nuclear translocation of 125I-angiogenin: HUVE cells, concentrations as in Table 1; for Nuclear 125I-angiogenin: 37° C. 30 min, control 3090 ± 260; for Nuclear 125I-angiogenin / % inhibition of nuclear translocation of angiogenin: 125I-angiogenin 1 μg/ml 30 min.

Data set [6] relates to chorioallantoic membrane (CAM) of chick embryos. The data set is described as follows: CAM assay, EGF-induced angiogenesis. In kind it is in vivo. As to conditions: EGF 10 ng alone. As for the experimental part: as §2
Data set [7] shares this test system. The data set is described as follows: CAM assay, VEGF-induced angiogenesis. The class given is in vivo. As to conditions: VEGF 10 ng alone. As for the experimental part:
as §2

For data set [8] the test system is unchanged. The data set is described as follows: CAM assay, aFGF-induced angiogenesis. In kind it is in vivo. As to conditions: aFGF 10 ng alone. The method, then: as §2
Data set [9] shares this test system. The data set is described as follows: CAM assay, bFGF-induced angiogenesis. As to conditions: bFGF 10 ng alone. In kind it is in vivo. As for the experimental part:
as §2

[10] abbreviates: with angiogenin 1 μg/ml, none: 62,500 ± 100.
[11] abbreviates: without angiogenin, none: 52,000 ± 100.

Values joined by “and” are separate entries in the source; they are usually repeats but may differ in a detail not shown here. Equal entries are not always repeated. “Also recorded” adds a separate entry of the source.

`NCC[C@H](O)C(=O)N[C@@H]1C[C@H](N)[C@@H](O[C@H]2O[C@H](CN)[C@@H](O)[C@H](O)[C@H]2O)[C@H](O)[C@H]1O[C@H]1O[C@H](CO)[C@@H](O)[C@H](N)[C@H]1O` [Amikacin, amikacin]: in the data set on HUVE cells [1], the “significant inhibitory effect on cell proliferation induced by bFGF” value (shortened to “significant inhibitory effect”) is given as “no”, the “% Inhibition of bFGF-induced cell proliferation” value is 11%, the “bFGF (10 ng/ml) Cell Numbers” value is reported as 97600 ± 1300 and the “Control (cell number without bFGF)” value was 63000 ± 900. Also, the “cytotoxicity against HUVE cells” value in the data set on HUVE cells [2] was “no cytotoxicity”. For the same compound, in the data set with HUVE cells [3], the “inhibition of angiogenin-induced cell proliferation” value is reported as “None” and the “percent of cell number in the presence of 1 μg/ml angiogenin relative to the corresponding control” value came to 118%. The Cell number in the data set on HUVE cells [3] (setting [10]) is given as 61,000 ± 400. The Cell number in the data set with HUVE cells [3] (setting [11]) is 51,700 ± 200. For the same compound, the “inhibition of angiogenin-induced angiogenesis in CAM assay” value in [4] is recorded as “do not inhibit angiogenin-induced angiogenesis”.
On to `O=c1c(-c2ccc(O)cc2)coc2cc(O)cc(O)c12` [Genistein, genistein], for which the “effect on nuclear translocation of 125I-angiogenin” value (shortened to “effect on nuclear translocation”) in data set [5] is recorded as “no effect; also recorded: do not inhibit nuclear translocation of angiogenin”. Also, in data set [5] (Homo sapiens, 0.5 h, read-out: % inhibition of nuclear translocation of angiogenin), the inhibition at 100 µM is 0%. Further, the “Nuclear 125I-angiogenin” value in data set [5] (inhibitor 100 μM) came to 3300 ± 170 cpm.
Take `NC[C@H]1O[C@H](O[C@H]2[C@H](O)[C@@H](O[C@H]3O[C@H](CO)[C@@H](O)[C@H](N)[C@H]3O)[C@H](N)C[C@@H]2N)[C@H](O)[C@@H](O)[C@@H]1O` [Kanamycin, kanamycin]: in the data set on HUVE cells [1], the “% Inhibition of bFGF-induced cell proliferation” value came to 8%, the “bFGF (10 ng/ml) Cell Numbers” value is on record as 98000 ± 2500 and the “Control (cell number without bFGF)” value was 62600 ± 1100. For the same compound, the “cytotoxicity against HUVE cells” value in the data set with HUVE cells [2] is “no cytotoxicity”. Further, the Cell number in the data set on HUVE cells [3] (setting [10]) is on record as 58,900 ± 200. Also, the Cell number with HUVE cells [3] (setting [11]) is 48,800 ± 400. For the same compound, the “percent of cell number in the presence of 1 μg/ml angiogenin relative to the corresponding control” value with HUVE cells [3] came out at 121%.
Turning to `NC[C@@H]1O[C@H](O[C@H]2[C@@H](O)[C@H](O[C@@H]3[C@@H](O)[C@H](N)C[C@H](N)[C@H]3O[C@H]3O[C@H](CO)[C@@H](O)[C@H](O)[C@H]3N)O[C@@H]2CO)[C@H](N)[C@@H](O)[C@@H]1O` [Paromomycin, paromomycin], the “cytotoxicity against HUVE cells” value in the data set with HUVE cells [2] was “no cytotoxicity”. In the data set on HUVE cells [3], the “inhibition of angiogenin-induced cell proliferation” value is “did not inhibit angiogenin-induced cell proliferation; also recorded: no inhibitory activity at all”. The Cell number is recorded as 58,900 ± 400 in the data set with HUVE cells [3] (setting [10]) and 50,900 ± 500 with HUVE cells [3] (setting [11]). In addition, the “percent of cell number in the presence of 1 μg/ml angiogenin relative to the corresponding control” value in the data set on HUVE cells [3] is recorded as 116%.
Turning to `CN[C@@H]1C[C@H]2O[C@@](C)([C@@H]1OC)n1c3ccccc3c3c4c(c5c6ccccc6n2c5c31)C(=O)NC4` [Staurosporine, staurosporine], in data set [5], the “effect on nuclear translocation” value is “only marginally inhibitory; also recorded: do not inhibit nuclear translocation of angiogenin”. In addition, in data set [5] (inhibitor 100 nM), the “Nuclear 125I-angiogenin” value is recorded as 2710 ± 70 cpm.
Turning to `[H]/N=C(/N)N[C@H]1[C@H](O)[C@@H](O)[C@H](O[C@@H]2O[C@@H](C)[C@](O)(C=O)[C@H]2O[C@@H]2O[C@@H](CO)[C@H](O)[C@@H](O)[C@@H]2NC)[C@@H](N/C(N)=N\[H])[C@@H]1O` [Streptomycin, streptomycin], in the data set on HUVE cells [1], the “significant inhibitory effect” value is “no”, the “% Inhibition of bFGF-induced cell proliferation” value came to 0%, the “bFGF (10 ng/ml) Cell Numbers” value is 104200 ± 400 and the “Control (cell number without bFGF)” value turned out to be 62300 ± 600. The “cytotoxicity against HUVE cells” value in the data set on HUVE cells [2] is “no cytotoxicity”. In the data set on HUVE cells [3], the “inhibition of angiogenin-induced cell proliferation” value is “None” and the “percent of cell number in the presence of 1 μg/ml angiogenin relative to the corresponding control” value was 115%. The Cell number in the data set with HUVE cells [3] (setting [10]) is given as 59,900 ± 900. Besides, the Cell number with HUVE cells [3] (setting [11]) is 51,900 ± 1,300. The “inhibition of angiogenin-induced angiogenesis in CAM assay” value in data set [4] is given as “do not inhibit angiogenin-induced angiogenesis”.
For the compound `COc1ccc2c(c1)CC[C@@H]1[C@@H]2CC[C@]2(C)[C@@H](NCCCCCCN3C(=O)C=CC3=O)CC[C@@H]12` [U-73122], in data set [5] (inhibitor 10 μM), the “Nuclear 125I-angiogenin” value is recorded as 2140 ± 30 cpm. Moreover, the “% inhibition of nuclear translocation of angiogenin” value in data set [5] (inhibitor 10 μM, 10 µM) was 30% and 31%.
On to `COc1ccc2c(c1)CC[C@@H]1[C@@H]2CC[C@]2(C)[C@@H](NCCCCCCN3C(=O)CCC3=O)CC[C@@H]12` [U-73343], for which the “effect on nuclear translocation” value in [5] is “no effect”. Also, in [5] (inhibitor 10 μM), the “Nuclear 125I-angiogenin” value came to 2890 ± 100 cpm and the “% inhibition of nuclear translocation of angiogenin” value turned out to be 6%.
“Angiogenin: Human angiogenin (Met-1), recombinant product from an Escherichia coli expression system”: in the data set on HUVE cells [3] (angiogenin 1 μg/ml, no neomycin), the “increase of cell number after 48 hr” value is 35%. In addition, the “% Positive (angiogenic response)” value in data set [4] (angiogenin 10 ng alone, water 20) is on record as 55%.
Take EGF: epidermal growth factor: the Positive eggs in data set [6] (26 total eggs) worked out at 18. Also, the “% Positive” value in [6] (water 21) was determined as 69%.
On to VEGF, for which the Positive eggs in data set [7] (27 total eggs) is listed as 17. The “% Positive” value in data set [7] (water 21) came out at 63%.
aFGF: acidic fibroblast growth factor: in data set [8] (49 total eggs), the Positive eggs is given as 36. Besides, the “% Positive” value in data set [8] (water 21) is 73%.
Consider bFGF: basic fibroblast growth factor, for which the Positive eggs in data set [9] (37 total eggs) was determined as 29. In data set [9] (water 21), the “% Positive” value is on record as 78%.
As to gentamicin, in the data set with HUVE cells [1], the “significant inhibitory effect” value was “no”, the “% Inhibition of bFGF-induced cell proliferation” value was 5%, the “bFGF (10 ng/ml) Cell Numbers” value is on record as 98400 ± 1900 and the “Control (cell number without bFGF)” value was found to be 61800 ± 1200. Besides, in the data set on HUVE cells [2], the “cytotoxicity against HUVE cells” value was “no cytotoxicity”. Moreover, in the data set with HUVE cells [3], the “inhibition of angiogenin-induced cell proliferation” value is listed as “None” and the “percent of cell number in the presence of 1 μg/ml angiogenin relative to the corresponding control” value amounted to 121%. Moreover, in the data set with HUVE cells [3] (setting [10]), the Cell number is recorded as 55,700 ± 900. Moreover, the Cell number in the data set on HUVE cells [3] (setting [11]) is given as 45,700 ± 500.
